In article PMC4176160, “Characterization of three mycobacterial DinB (DNA polymerase IV) paralogs highlights DinB2 as naturally adept at ribonucleotide incorporation” (Nucleic Acids Research, 2014) one finds Kd data, which are given here for eight molecules.

Usually pKd stands for the negative decadic logarithm of the Kd, by convention in mol/L.

For the test, the target named is T1, DinB2 (MsmDinB2) (Mycolicibacterium smegmatis, UniProt A0QR77).
T1 construct: gene dinB; full-length 356 aa, 39 kDa, monomer; expressed in E. coli BL21(DE3) as His10Smt3 fusion, tag removed with Ulp1
T1 sequence (A0QR77 entry or part of it): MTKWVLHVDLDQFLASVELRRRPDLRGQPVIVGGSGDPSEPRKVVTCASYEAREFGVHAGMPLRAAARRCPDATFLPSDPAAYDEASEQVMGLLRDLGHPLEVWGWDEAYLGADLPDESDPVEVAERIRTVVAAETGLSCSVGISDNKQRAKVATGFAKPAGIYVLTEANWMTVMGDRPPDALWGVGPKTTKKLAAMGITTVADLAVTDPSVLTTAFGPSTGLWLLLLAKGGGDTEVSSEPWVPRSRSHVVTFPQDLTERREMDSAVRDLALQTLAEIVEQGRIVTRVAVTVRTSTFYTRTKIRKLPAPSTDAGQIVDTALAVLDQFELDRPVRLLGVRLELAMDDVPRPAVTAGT
The experiment in a line: primer extension, kobs of first nucleotide addition vs nucleotide concentration, hyperbolic fit. The class given is biochemical. Conditions: 5 mM MgCl2, 10 mM Tris-HCl pH 7.5, 37 °C, 1 μM enzyme, read-out: apparent Kd.

The mark [1] stands for this setting: 50 nM 13-mer/18-mer DNA primer-template with dT as first template base.
[2] abbreviates: 50 nM 13-mer/18-mer DNA primer-template with dG as first template base.
Where [3] appears, read: 50 nM 13-mer/18-mer DNA primer-template with dC as first template base.
The mark [4] stands for this setting: 50 nM 13-mer/18-mer DNA primer-template with dA as first template base.

pKd: −log10 of the molar value. Read-outs that look alike come from different tables or passages of the source.

Regarding `Nc1ncnc2c1ncn2[C@@H]1O[C@H](COP(=O)(O)OP(=O)(O)OP(=O)(O)O)[C@@H](O)[C@H]1O` [ATP], the pKd under setting [1] is 4.18.
In the case of `Nc1ccn([C@@H]2O[C@H](COP(=O)(O)OP(=O)(O)OP(=O)(O)O)[C@@H](O)[C@H]2O)c(=O)n1` [CTP], under setting [2], the negative-log Kd (pKd) was 4.36.
As to `Nc1nc2c(ncn2[C@@H]2O[C@H](COP(=O)(O)OP(=O)(O)OP(=O)(O)O)[C@@H](O)[C@H]2O)c(=O)[nH]1` [GTP], under setting [3], the pKd was 4.66.
Consider `O=c1ccn([C@@H]2O[C@H](COP(=O)(O)OP(=O)(O)OP(=O)(O)O)[C@@H](O)[C@H]2O)c(=O)[nH]1` [UTP], for which, under setting [4], the negative logarithm of the Kd (pKd) was 3.39.
In the case of `Nc1ncnc2c1ncn2[C@H]1C[C@H](O)[C@@H](COP(=O)(O)OP(=O)(O)OP(=O)(O)O)O1` [dATP], the pKd under setting [1] was 6.07.
Take `Nc1ccn([C@H]2C[C@H](O)[C@@H](COP(=O)(O)OP(=O)(O)OP(=O)(O)O)O2)c(=O)n1` [dCTP]: the pKd under setting [2] was 5.82.
Take `Nc1nc2c(ncn2[C@H]2C[C@H](O)[C@@H](COP(=O)(O)OP(=O)(O)OP(=O)(O)O)O2)c(=O)[nH]1` [dGTP]: the pKd under setting [3] was 6.06.
With `Cc1cn([C@H]2C[C@H](O)[C@@H](COP(=O)(O)OP(=O)(O)OP(=O)(O)O)O2)c(=O)[nH]c1=O` [dTTP], the pKd under setting [4] is 5.10.
